Results as given in patent US8962263B2, “Methods and compositions for detecting the activation state of multiple proteins in single cells” (The Board of Trustees of the Leland Stanford Junior …, priority 2001, dated 2015).

B1: ICAM-1: recombinant human ICAM-1-FC, soluble LFA-1 ligand (protein)
chain: QTSVSPSKVILPRGGSVLVTCSTSCDQPKLLGIETPLPKKELLLPGNNRKVYELSNVQEDSQPMCYSNCPDGQSTAKTFLTVYWTPERVELAPLPSWQPVGKNLTLRCQVEGGAPRANLTVVLLRGEKELKREPAVGEPAEVTTTVLVRRDHHGANFSCRTELDLRPQGLELFENTSAPYQLQTFVLPATPPQLVSPRVLEVDTQGTVVCSLDGLFPVSEAQVHLALGDQRLNPTVTYGNDSFSAKASVSVTAEDEGTQRLTCAVILGNQSQETLQTVTIYSFPAPNVILTKPEVSEGTEVTVKCEAHPRAKVTLNGVPAQPLGPRAQLLLKATPEDNGRSFSCSATLEVAGQLIHKNQTRELRVLYGPRLDERDCPGNWTWPENSQQTPMCQAWGNPLPELKCLKDGTFPLPIGESVTVTRDLEGTYLCRARSTQGEVTRKVTVNVLSPRYE
modifications: left off: a dimerising Fc or GST
notes: recombinant human ICAM-1-FC, soluble LFA-1 ligand
B2: ICAM-3: recombinant human ICAM3-FC, soluble LFA-1 ligand (protein)
chain: QEFLLRVEPQNPVLSAGGSLFVNCSTDCPSSEKIALETSLSKELVASGMGWAAFNLSNVTGNSRILCSVYCNGSQITGSSNITVYRLPERVELAPLPPWQPVGQNFTLRCQVEDGSPRTSLTVVLLRWEEELSRQPAVEEPAEVTATVLASRDDHGAPFSCRTELDMQPQGLGLFVNTSAPRQLRTFVLPVTPPRLVAPRFLEVETSWPVDCTLDGLFPASEAQVYLALGDQMLNATVMNHGDTLTATATATARADQEGAREIVCNVTLGGERREARENLTVFSFLGPIVNLSEPTAHEGSTVTVSCMAGARVQVTLDGVPAAAPGQPAQLQLNATESDDGRSFFCSATLEVDGEFLHRNSSVQLRVLYGPKIDRATCPQHLKWKDKTRHVLQCQARGNPYPELRCLKEGSSREVPVGIPFFVNVTHNGTYQCQASSSRGKYTLVVVMDIEAGSSH
modifications: left off: a dimerising Fc or GST
notes: recombinant human ICAM3-FC, soluble LFA-1 ligand

Assays:
Pyk2 = assay: sICAM-2 induced Pyk2 phosphorylation (phospho-tyrosine based ELISA, chemical genetic approach); type: cell-based; conditions: for phosphorylation of Pyk2: chemical genetic approach, sICAM-2 stimulus; for sICAM-2 induced Pyk2 phosphorylation: phospho-tyrosine based ELISA
Excerpt: (§1) E) depicts that LFA-1, induced phosphorylation of Pyk2, and Syk is dependent on PKC. We screened for the inhibition of sICAM-2, induced Pyk2, and Syk phosphorylation by chemical inhibitors to tyrosine kinases using a phospho-tyrosine based ELISA. Pyk2, phosphorylation was abrogated in the presence of PKC inhibitors bisindolymaleimide II (BIM II) and staurosporine (STP), in addition to tyrphostin A9, a specific Pyk2, inhibitor. a Pyk2, phosphorylation was also affected by inhibitors of phospholipase Cg (neomycin), inhibitors of Syk (piceatannol), and PKC inhibitor BIM I. Syk phosphorylation was completely abolished by inhibition of Pyk2, PLCg1, and strongly affected by PKC inhibitors. Thus, both Pyk2, and Syk phosphorylations were dependent on PKC activity, while Syk phosphorylation was additionally dependent on PLCg1, and Pyk2, activity. It was not possible to assess specific PKC isozymes by this method.
(§2) A chemical genetic approach was undertaken to determine the hierarchy of PKC, Pyk2, PLCg1, and Syk activities in response to sICAM-2, stimulus by verifying phosphorylation status of each kinase in the presence of respective chemical inhibitors. Inhibition of PKC with BIM II abrogated phosphorylation of Pyk2, PLCg1, and Syk. Inhibition of PLCg1, by neomycin abrogated phosphorylation of Syk, with no inhibition observed for Pyk2. […] Thus, the upstream signaling events from LFA-1, to Raf-1, appear to involve PKC/Pyk2/PLCg1/Syk. […] We are currently pursuing these complexes in a separate study.

Syk = assay: sICAM-2 induced Syk phosphorylation (phospho-tyrosine based ELISA, chemical genetic approach); type: cell-based; conditions: sICAM-2 stimulus
Excerpt: as §1
A chemical genetic approach was undertaken to determine the hierarchy of PKC, Pyk2, PLCg1, and Syk activities in response to sICAM-2, stimulus by verifying phosphorylation status of each kinase in the presence of respective chemical inhibitors. Inhibition of PKC with BIM II abrogated phosphorylation of Pyk2, PLCg1, and Syk. Inhibition of PLCg1, by neomycin abrogated phosphorylation of Syk, with no inhibition observed for Pyk2. […]

PLCg1 = assay: sICAM-2 induced PLCg1 phosphorylation (chemical genetic approach); type: cell-based; conditions: sICAM-2 stimulus
Excerpt: as §2

NIH3T3 = assay: staurosporine induced apoptosis in ICAM-2 transduced NIH3T3 (annexin-V binding, BrdU TUNEL); type: cell-based, murine
Procedure: A) Pharmacological inhibitors of PI3K abrogate ICAM-2's anti-apoptotic. ICAM-2, or vector transduced BaF3, cells were treated with staurosporine (1, μM) with (unfilled) or without (filled) the addition of 100, nM wortmannin for 24, hours (left bar graph). Apoptosis was determined by nuclear staining and fluorescence microscopy (left bar graph) and by annexin-V binding assay (right bar graph). The proportion of apoptotic cells in each culture without staurosporine was 8%+/−2. The percentage of apoptotic cells is expressed as the mean (bar)+SD of triplicate cultures. ICAM-2, 1CAM2-AC, or vector transduced NIH3T3, were treated with staurosporine ([…]) in the presence or absence of 10, μM LY294002, for 24, hours (right bar graph). DMSO vehicle served as negative control. The percentage of apoptotic cells is expressed as the mean (bar)+/−SD of triplicate cultures. B) Confocal images of PI3K and AKT localization in ICAM-2, (top) or vector control cells (bottom). C) Confocal images of ezrin and the p85, subunit of PI3K (green) localization in ICAM-2, (top) or vector control cells (bottom).
A) The anti-apoptotic effect of ICAM-2, is both wortmannin and LY294002, sensitive. ICAM-2, or vector transduced BaF3, cells were treated with staurosporine (1, μM) with (unfilled) or without (filled) the addition of 100, nM wortmannin for 24 hours. Apoptosis was determined by nuclear staining and fluorescence microscopy (left bar graph) and by annexin-V binding assay (right bar graph). The proportion of apoptotic cells in each culture without staurosporine was 8%±2. The percentage of apoptotic cells is expressed as the mean (bar)±SD of triplicate cultures. ICAM-2, ICAM2-ΔC, or vector transduced NIH3T3, were treated with staurosporine (1, μM) in the presence or absence of 10, μM LY294002, for 24, hours. DMSO vehicle served as negative control. The percentage of apoptotic cells is expressed as the mean (bar)±SD of triplicate cultures. B) ICAM-2, expressing NIH3T3, cells are sensitive to apoptosis in the presence of PI3K inhibitor LY294002. BrdU TUNEL assay was performed in staurosporine (1, μM) or LY294002, (10, μM) treated ICAM-2, ICAM2-ΔC, and control vector transduced NIH3T3, cells. The percentage of apoptotic cells is expressed as the mean (bar)±SD of triplicate cultures.
Apoptosis was determined either by counting pyknotic nuclei, annexin-V binding by flow cytometry, or TUNEL BrdU staining by flow cytometry as indicated. Apoptosis was induced either by staurosporine (1 μm), treatment with anti-mouse Fas (5 μq/ml Santa Cruz Biotechnology (SCB), […] Fas (5 μg/ml Jo2 Biomed) or anti-human Fas (10 ng/ml CH11 Kamiya Biomedical) as indicated in appropriate experiment, IL-3 withdrawal-(24 hrs) or as indicated. For pyknolic nuclei count, NIH3T3 cells were grown on glass coverslips and assayed for apoptosis. Suspension cells were analyzed by nuclear staining with 25 μM acridine orange/25 μm ethidium bromide or 5 μg/ml Hoechst 33342 (Molecular Probes, Eugene, Oreg.). Apoptosis was identified by the presence of characteristic pyknotic nuclei as described (Jacobson and Raff, 1995). At least 5 individual fields were photographed and counted using a Zeiss axioscope fluorescence microscope. For the survival assay 10^6 NIH3T3 cells were plated in 10 cm dishes and incubated overnight at 37° C. The cells were treated with 1 μM staurosporine for 24 hours. The cells were washed and cultured for 24 hours in complete medium. The cells were trypsinized and viable cells counted following trypan blue staining. Untreated cells were counted at the time of treatment. % survival represents (number of viable cells post-treatment)/(number of viable cells pretreatment). FACS based annexin-V-FITC/PI staining was done as described (PharMingen). TUNEL assay was performed as described by manufacturer of Apoptosis BrdU kit (Promega). […]

ezrin = assay: phosphotyrosine-protein based elisa for ezrin tyrosine phosphorylation upon ICAM-2 ligation; type: cell-based, human; conditions: Jurkat cells
Procedure: A) Expression levels of ICAM-2, vary across cell lines of different origins. Quantitative flow cytometry analysis was performed to assess the number of ICAM-2 surface molecules across transformed and untransformed fibroblasts, lymphocytes of T-cell and different B-cell differentiation states and myeloid lineages (see Material and Methods for elaboration). The number of surface molecules/cell is expressed as the mean (bar)+/−SD of triplicate experiments. B) Crosslinking of endogenous ICAM-2, induces ezrin tyrosine phosphorylation and enhanced ICAM-2, interaction. Jurkat cells were crosslinked for ICAM-2 using monoclonal antibody for the indicated times and subjected to immunoprecipitation/immunoblotting as indicated. C) Inhibition of ezrin phosphotyrosine by chemical inhibitors of src and Rho-dependent kinases. D) Ezrin phosphorylation and enhanced interaction with the p85, subunit of PI3K as a function of ICAM-2. Determined as described above. E) PDK-1, activity as a function of ICAM-2, ligation, as described above). F) PI3K and AKT localize to the membrane as a function of ICAM-2, ligation. Membrane/cytosolic fractionation was performed on ICAM-2, ligated Jurkat cells as a function of time and subjected to immunoblotting for PI3K and AKT.
In order to identify upstream kineses capable of tyrosine phosphorylating ezrin as a function of ICAM-2 ligation, we developed a phosphotyrosine-protein based elisa to screen for the inhibition of ezrin tyrosine phosphorylation in vivo by various known inhibitors of protein kineses (Perez and Nolan, manuscript in preparation). […] Given the design of the screen to detect tyrosine residue phosphorylation, we speculate that activation of Rho-dependent processes may be a prerequisite for ezrin to be tyrosine phosphorylated by src (elaborated below).

HL60 cells = assay: FACS based effector-target killing assay, human PBMC against CFSE labeled HL60 cells; type: cell-based; conditions: 10 μg/ml, 50:1 E:T ratio, 4 hrs
Procedure: A) PBMC were either treated with ICAM-2, (10 μg/ml) in the presence of IL-2, for 12, hr and then incubated with CFSE labeled target HL60, cells at a 50:1, E:T ratio for 4, hrs. Remaining HL60, cells were quantified by flow cytometry. B) PBMC were treated with IL-2, (100, U/ml, 12, hrs) and treated with ICAM-1,-2, or 3, FC proteins (10, μg/ml) and used in a cytotoxicity assay as described above. Results are representative of 4, independent experiments.
(§3) Target cell lysis was measured by flow cytoemtric based detection of CFSE labeled HL60 cells. HL60 cells were labeled with 1 μg of CFSE (30 min, 37° C.). Targets were washed twice and mock treated, IL-2 activated (100 U/ml), CD3/CD28 activated (1 μg/ml), or treated with ICAM2 beads or soluble ICAM-1, -2, or 3 (10 μg/ml, 30 min, 37° C.) before plating at 10^4 target cells/well of a 96-well round bottom plate. CTLs were added at 50:1, 25:1, and 12.5:1 E:T ratio, and incubated at 37° C. for 4 hrs. Cells were then processed for multiparameter flow cytometry and intracellular perforin stain. Percent specific lysis was calculated by the following equation: % specific lysis=100-100×(experimental HL60 count/total control HL60 count). HL60 counts were detectable by the CFSE fluorescence. Percent perforin was calculated by the following equation: % perforin=100×[(experimental perforin MFI−isotype mAb MFI)/(total perforin MFI−isotype mAb MFI)]. MFI refers to mean fluorescent intensity of flow cytoemtric based intracellular detection. Cell conjugates were determined by flow cytometry as described (Morgan et al., 2001). Chemical inhibition was done at 10 μM of indicated compound (30 min, 37° C.) prior to stimulation as indicated. All experiments were performed in triplicate.

[1] = test system: CD56 CD8 cytotoxic lymphocyte subsets; assay: intracellular perforin and granzyme-A in CD56CD8 subsets of human PBMC by flow cytometry; type: cell-based; conditions: for granzyme-A negative population: CD56+CD8high population; for changes in intracellular perforin or granzyme-A: CD56+CD8low population; for frequency of the perforin negative population: CD56+CD8med population
Procedure: IL-2, activated PBMC (shown in A-1 and A-3) were mock-treated (IgG) (A-2) , ICAM-1, (A2), ICAM-2, (A4), or ICAM-3, (A4) treated (10, μg/ml of FC fusion protein) for 12 hrs prior to incubation with target HL60, cells at a 50:1, E:T ratio for 4, hrs. Cells were then prepared for flow cytometry with CD8-CY5PE, CD56-PE surface stains, and perforin-CY5, and granzyme-A-FITC intracellular stains. Cells were gated for CD56^+CD8^low, CD56^+CD8^med, CD56^+, CD8^high, CD56^−, CD8^−, , CD56^−-CD8^high, populations as shown in A-1 and A-3 and population frequencies within appropriate gate. […] Results are representative of 3 independent experiments and were similar at 25:1 and 12.5:1 E:T ratios (data not shown). Manual calibration was performed. […] Perforin percentage was calculated from the following equation where MFI equals mean fluorescent intensity: 100×[(MFIexperimental−MFIisotype mAb)/(MFIcontrol−MFlisotype mAb)] Unstimulated cells were used as control.
as §3

Row | Molecule | phosphorylation of Pyk2 (Pyk2) | sICAM-2 induced Pyk2 phosphorylation (Pyk2) | phosphorylation of Syk (Syk) | phosphorylation of PLCg1 (PLCg1) | ICAM-2 induced survival signal (NIH3T3; PKC isozyme inhibitors, system not specified) | effect on ICAM-2 anti-apoptotic effect, other kinase inhibitors (NIH3T3; cell type not stated, data not shown) | tyrosine phosphorylation of ezrin (ezrin) | target cell lysis of HL60 cells (HL60 cells) | granzyme-A negative population [1] [%] | changes in intracellular perforin or granzyme-A [1] | frequency of the perforin negative population [1] [%]
1 | CN1CCCC1CCn1cc(C2=C(c3c[nH]c4ccccc34)C(=O)NC2=O)c2ccccc21 (stereo not drawn) [bisindolymaleimide II] | abrogated | abrogated | abrogated | abrogated | did not abrogate | not abrogated | minor affects | – | – | – | –
2 | neomycin | no inhibition | affected | abrogated | – | – | – | – | – | – | – | –
3 | B1 | – | – | – | – | – | – | – | did not initiate as potent a cytotoxic cell response | 4.12 | no significant changes | 13.7
4 | B2 | – | – | – | – | – | – | – | did not initiate as potent a cytotoxic cell response | 3.07 | no significant changes | 19.8
